Source: patent US10100018B2, “Amide derivatives as lysophosphatidic acid receptor antagonists” (Takeda Pharmaceutical Company Limited, priority 2013, dated 2018)
Where a name gives a salt, the structure may show the parent alone. Read-outs that look alike come from different tables or passages of the source.

How the values were obtained:
FPP-induced hyperalgesia = assay: In vivo farnesyl pyrophosphate-induced inflammatory (hyperalgesia) model, Randall-Selitto; settings: Rattus norvegicus, adult male rats, read-out: In vivo efficacy (minimum effective dose (MED)
Description: In Vivo Farnesyl Pyrophosphate-Induced Inflammatory Model
The FPP-induced hyperalgesia model is a pharmacodynamic rat model which involves inducing pain by injecting FPP, an agonist of LPA5 receptor, into the plantar surface of the hindpaw.
Withdrawal responses were reassessed at 30 and 90 minutes after injection of FPP in the ipsilateral paw.

[1] = test system: bleomycin-induced scleroderma; assay: In vivo bleomycin induced scleroderma model; design: species or system C57BL/6 mice; settings: for skin collagen content compared to the vehicle-treated group: skin samples Day 28
Description: In Vivo Bleomycin Induced Scleroderma Model
Adult male C57BL/6 mice, aged 8-10 weeks, were assigned to groups and allowed to acclimatise for a week. On Day −1, the back skin of the animals was shaved. From Day 0, animals were administered with 100 μl of a 1 mg/ml solution of bleomycin sulphate in phosphate buffered saline (PBS) by intradermal injection in the shaved skin. Injections were repeated in a one square centimeter area every other day for four weeks. A group of ten animals (Control group) was injected with an identical volume of PBS. Animals were weighed at the beginning of the experiment on Day 0 and then twice weekly throughout the study. At the end of the experiment, on Day 28, animals were culled and samples of back skin were taken for further analysis. All groups were n=10; the vehicle was distilled water and the administration volume was 10 ml/kg for oral gavage (p.o.); administration volume was 25 μl for topical application.
Bodyweights were graphed along with the standard error of the mean (SEM); Skin samples (two punch biopsies per animal, 4 mm in diameter each) samples were hydrolyzed and hydroxyproline content of the samples was determined from analysis in a semi-automated process using a continuous flow analyzer. Autoanalyser readings were calibrated against hydroxyproline standards and collagen content calculated.

LPA5 receptor = LPA5 receptor (Homo sapiens (Human), UniProt Q9H1C0); settings: reported, Williams et al. (2009); cited from earlier work
Sequence of LPA5 receptor (Q9H1C0 whole entry): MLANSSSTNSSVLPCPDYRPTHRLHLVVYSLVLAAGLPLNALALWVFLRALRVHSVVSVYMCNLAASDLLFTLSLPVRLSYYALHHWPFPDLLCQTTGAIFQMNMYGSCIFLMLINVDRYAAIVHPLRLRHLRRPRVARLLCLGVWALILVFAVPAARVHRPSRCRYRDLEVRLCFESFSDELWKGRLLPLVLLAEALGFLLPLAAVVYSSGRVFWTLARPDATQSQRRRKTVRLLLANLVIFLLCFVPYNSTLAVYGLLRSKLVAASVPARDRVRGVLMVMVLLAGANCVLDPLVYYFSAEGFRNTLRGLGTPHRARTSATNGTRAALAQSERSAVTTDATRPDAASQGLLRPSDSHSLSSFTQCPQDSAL

Work on `Cc1ccccc1Oc1ccc(C(=O)N(Cc2ccccc2)Cc2ccc(C(=O)O)cc2)cc1` [Example 24, 4-((N-Benzyl-4-(o-tolyloxy)benzamido)methyl)benzoic acid] yielded a minimal effective dose (FPP-induced hyperalgesia; route po) of 30 mg/kg.

For `C[C@H]1C[C@H]2[C@@H]3CCC4=CC(=O)C=C[C@]4(C)[C@@]3(F)[C@@H](O)C[C@]2(C)[C@@]1(O)C(=O)CO` [Betamethasone, reference compound], the “skin collagen content compared to the vehicle-treated group” value ([1]; administered from Day 0) was “non-significant reduction”.

With `COc1ccccc1Oc1ccc(C(=O)N(Cc2ccc(C(=O)O)cc2)CC(F)F)cc1` [Example 29, 4-((N-(2,2-Difluoroethyl)-4-(2-methoxyphenoxy)benzamido)-methyl)benzoic acid] the minimal effective dose (FPP-induced hyperalgesia; route po) was 3 mg/kg.

In the case of `CC(C)=CCC/C(C)=C/CC/C(C)=C/COP(=O)(O)OP(=O)(O)O` [Farnesyl pyrophosphate], the “selectivity over other LPA receptors” value (LPA5 receptor) is given as 3 fold.

In the case of `O=C(O)c1ccc(CN(CC(F)(F)F)C(=O)c2ccc(Oc3ccccc3F)cc2)cc1` [Example 3, 4-((4-(2-Fluorophenoxy)-N-(2,2,2-trifluoroethyl)benzamido)-methyl)benzoic acid], the minimal effective dose (FPP-induced hyperalgesia; route po) is reported as ≤ 10 mg/kg.

In the case of `CC(C)CN(Cc1ccc(C(=O)O)cc1)C(=O)c1ccc(Oc2ccccc2F)cc1` [Example 4, 4-((4-(2-Fluorophenoxy)-N-isobutylbenzamido)methyl)benzoic acid], the minimal effective dose (FPP-induced hyperalgesia; route ip) is reported as 1 mg/kg and the minimal effective dose (FPP-induced hyperalgesia; route po) is reported as ≤ 10 mg/kg.

For `O=C(O)c1ccc(CN(CC2CC2)C(=O)c2ccc(Oc3ccccc3F)cc2)cc1` [Example 5, 4-((N-(Cyclopropylmethyl)-4-(2-fluorophenoxy)benzamido)-methyl)benzoic acid], the minimal effective dose (FPP-induced hyperalgesia; route ip) was 0.3 mg/kg, the minimal effective dose (FPP-induced hyperalgesia; route po) was ≤ 10 mg/kg and the “bodyweight loss compared to the vehicle-treated group” value ([1]; 30 mg/kg p.o. BID, treated groups) was “did not differ”. For the same compound, the “skin collagen content compared to the vehicle-treated group” value ([1]; administered from Day 0) was “significant reduction” and the “skin collagen content compared to the vehicle-treated group” value ([1]; administered from Day 14 to Day 28, 30 mg/kg p.o. BID) was “significant reduction”.

With `COc1ccccc1Oc1ccc(C(=O)N(Cc2ccc(C(=O)O)cc2)CC2CC2)cc1` [Example 31, 4-((N-(Cyclopropylmethyl)-4-(2-methoxyphenoxy)benzamido)-methyl)benzoic acid] the minimal effective dose (FPP-induced hyperalgesia; route po) was 1 mg/kg.

`Cc1cccc(F)c1Oc1ccc(C(=O)N(Cc2ccc(C(=O)O)cc2)CC2CC2)cc1` [Example 40, 4-((N-(Cyclopropylmethyl)-4-(2-fluoro-6-methylphenoxy)-benzamido)methyl)benzoic acid] showed a minimal effective dose (FPP-induced hyperalgesia; route po) of 60 mg/kg.

In the case of `O=C(O)c1ccc(CN(Cc2ccccc2)C(=O)c2ccc(Oc3ccccc3F)cc2)cc1` [Example 11, 4-((N-Benzyl-4-(2-fluorophenoxy)benzamido)methyl)benzoic acid], the minimal effective dose (FPP-induced hyperalgesia; route po) is reported as ≤ 10 mg/kg.

With `CC(C)CCN(Cc1ccc(C(=O)O)cc1)C(=O)c1ccc(Oc2ccccc2F)cc1` [Example 8, 4-((4-(2-Fluorophenoxy)-N-isopentylbenzamido)methyl)benzoic acid] the minimal effective dose (FPP-induced hyperalgesia; route po) was 100 mg/kg.

For `Cc1ccc(NC(=O)c2ccc(CN3CCN(C)CC3)cc2)cc1Nc1nccc(-c2cccnc2)n1` [Imatinib, Imatinib mesylate, reference compound], the “skin collagen content compared to the vehicle-treated group” value ([1]; administered from Day 0) was “non-significant reduction”.
